Here are results for 17 molecules from patent US4304778A, “4-Aminoquinazoline derivatives having fungicidal, anti-insect and acaricidal properties” (Sankyo Company Limited, priority 1978, dated 1981).

One data set relates to Phytophthora infestans. It is filed as in vivo. The settings on record: tomato late blight; 500 ppm; after 5 days; average per leaf.
A further data set concerns Alternalia solani. Description: Effect on early blight in tomatoes. Conditions: tomato early blight; 500 ppm; 3 days in greenhouse. It is filed as in vivo. How it is done:
(§1) In the following Examples, wettable powders prepared according to the procedures of Example 4 were used, each powder containing 50% by weight of the active compound of this invention.
Groups of tomato plants (variety Shinfukuju) were planted, two per pot, in a series of Wagner pots (diameter 12 cm) and used for the following test when at the 5 to 6 leaf stage. Each pot was treated with 30 ml of an aqueous suspension containing 500 ppm of one of the active compounds shown in Table 3, applied to the plants by spraying over their stems and leaves. After air-drying the plants, a spore suspension of the pathogenic microorganism Alternalia solani was sprayed over each plant, and the plants were kept in a wet room for 24 hours at 20°-22° C. and 100% relative humidity. The pots were then placed in a greenhouse for 3 days. All leaves were then examined for signs of the disease and the number of disease spots per leaf was calculated, using three pots for each compound.

The test system of a further data set is Sphaerotheca fuliginea. Put plainly: Effect on powdery mildew in cucumbers. Conditions: cucumber powdery mildew; 500 ppm; 10 days. It is filed as in vivo. As for the experimental part:
as §1
Cucumber seedlings (variety Sagamihanshiro), planted two per 12 cm diameter pot, were used as host plants at the stage when the first leaf was fully grown and open. Each test group of three pots was treated with one of the active compounds shown in Table 5 by spraying an aqueous suspension containing 500 ppm of the active compound onto the plants at the rate of 20 ml per 3 pots. After air-drying the plants, the host plants were inoculated with the microorganism Sphaerotheca fuliginea by brushing already infected cucumber leaves with a small brush and letting the microorganism fall onto the host plants. The inoculated plants were kept in a greenhouse at 24°-26° C. for 10 days. At the end of this time, the percentage diseased area was measured.

The next data set deals with cockroach larvae. The settings on record: 24 hours; 25° C.
For data set [1], the system named is Colletotrichum lagenarium. Put plainly: Effect on anthracnose in cucumbers. Format: in vivo. Conditions: cucumber anthracnose; 500 ppm; seven days; cotyledon and first leaf. How it is done: as §1
Groups of cucumber plants (variety Sagamihanshiro) were planted, two per pot, in a series of Wagner pots (diameter 12 cm) and were used as host plants when the first leaf was fully grown and open. Each test group of three pots was treated with one of the active compounds shown in Table 4 by spraying an aqueous suspension containing 500 ppm of the active compound onto the plants at the rate of 30 ml per 3 pots. After air-drying the plants, a spore suspension of the pathogenic microorganism Colletotrichum lagenarium was sprayed onto the plants and the plants were kept in a wet room for 24 hours at 20°-22° C. and 100% relative humidity. The pots were then placed in a greenhouse at 26° C. and, seven days after the spore suspension had been sprayed on, the percentage diseased area of the cotyledon and the first leaf was calculated.

Data set [2] relates to final instar larvae of the diamondback moth (Plutella xylostella). Description: Repellent and emergence-inhibition effect on the final instar larvae of diamondback moths. Set-up: key to Extent of ingestion: -: no ingestion; ±: very little ingestion; +: some ingestion; ++: considerable ingestion. Format: in vivo. The settings on record: 72 hours; for pest or weed control at 500 ppm: Plutella xylostella, read-out: Emergence-inhibition rate (%); for Extent of ingestion: radish leaves dipped in 500 ppm.
Source text: as §1
Leaves of the Japanese radish (Raphanus sativus) were dipped for 30 seconds into a liquid containing 500 ppm of one of the compounds shown in Table 9. After air-drying the leaves, each leaf was placed into a plastic icecream cup (diameter 8 cm) and 15 final instar larvae of the diamondback moth (Plutella xylostella) were placed into each cup. Each test was conducted in duplicate and the results were averaged.

In data set [3] the test system is third instar larvae of the tobacco cutworm. Description: Repellent action against the third instar larvae of the tobacco cutworm. Format: in vivo. Set-up: key: -: no ingestion; ±: very little ingestion; +: some ingestion; ++: considerable ingestion. The settings on record: cabbage leaves dipped in 500 ppm, 72 hours.
Source text: as §1
Cabbage leaves were dipped for 30 seconds in an aqueous suspension containing 500 ppm of one of the active compounds shown in Table 6. After air-drying, each leaf was placed into a plastic receptacle having a diameter of 8 cm and the third instar larvae (10 per receptacle) of the tobacco cutworm were released onto the leaves. After 72 hours, the extent of ingestion of the leaves was measured, using two receptacles for each test compound. The results are shown in Table 6, using the following notation (which is also employed, with the same meaning, in following Table 9): […]

Another data set has as its system guppies. Put plainly: Toxicity to guppies. It is filed as in vivo. Conditions: LC50 after 48 hours classified. As for the experimental part: In this example the toxicity of the compounds of the invention towards guppies was estimated and is compared with that of corresponding compounds as disclosed and claimed in our co-pending U.S. Application No. 910,117 filed May 30, 1978. The LC50 was determined after 48 hours and the toxicity to guppies was classified into the rankings (i), (ii) and (iii) according to the following classification scheme: […]

For `Cc1ccccc1OCCN(c1ncnc2ccccc12)C1CCCCC1` [compound 9, 4-{N-cyclohexyl-N-[2-(2-methylphenoxy)ethyl]amino}quinazoline], the “Diseased area (%)” value with Phytophthora infestans stood at 13%. In the data set on Alternalia solani, the “No. of disease spots per leaf” value is 15 spots per leaf.
In the case of `Cc1ccc(OCCN(c2ncnc3ccccc23)C(C)C)c(C)c1` [compound 34, 4-{N-[2-(2,4-dimethylphenoxy)ethyl]-N-isopropylamino}quinazoline], the “Diseased area (%)” value with Phytophthora infestans was found to be 0%; in the data set on Sphaerotheca fuliginea it was 10%. The “No. of disease spots per leaf” value in the data set on Alternalia solani is recorded as 15 spots per leaf.
With `C=CCN(CCOc1ccccc1C(C)C)c1ncnc2ccccc12` [compound 25, 4-{N-allyl-N-[2-(2-isopropylphenoxy)ethyl]amino}quinazoline], the “Diseased area (%)” value in the data set on Phytophthora infestans is on record as 0%; with Sphaerotheca fuliginea it was 0%; in data set [1], 8%. Further, the “Mortality rate (%), 0.5mg test cpd/10 cockroaches/bottle” value in the data set with cockroach larvae turned out to be 85%. The “Mortality rate (%), 1mg test cpd/10 cockroaches/bottle” value in the data set with cockroach larvae worked out at 100%. Further, the “No. of disease spots per leaf” value in the data set on Alternalia solani is 15 spots per leaf.
Turning to `CCN(CCOc1ccc(Cl)cc1C)c1ncnc2ccccc12` [compound 38, 4-{N-[2-(4-chloro-2-methylphenoxy)ethyl]-N-ethylamino}quinazoline], the “Diseased area (%)” value in the data set on Phytophthora infestans is reported as 13%. In addition, in data set [2], the pest or weed control at 500 ppm worked out at 100% and the Extent of ingestion entry is reported as “- to ±”. In addition, the “Diseased area (%)” value in the data set on Sphaerotheca fuliginea came out at 0%. In addition, in the data set with cockroach larvae, the “Mortality rate (%), 0.5mg test cpd/10 cockroaches/bottle” value was found to be 90% and the “Mortality rate (%), 1mg test cpd/10 cockroaches/bottle” value is on record as 100%. Moreover, the Extent of ingestion result in data set [3] is given as “±”.
In the case of `Cc1ccccc1OCCN(C)c1ncnc2ccccc12` [Compound No. 1, 4-{N-methyl-N-[2-(2-methylphenoxy)ethyl]amino}-quinazoline], the “Diseased area (%)” value (in the data set on Phytophthora infestans; in the data set on Sphaerotheca fuliginea; in data set [1]) was 0% throughout. For the same molecule, the Toxicity ranking result with guppies is on record as “ii (all fish dead at 10 ppm but alive at 0.5 ppm)”. For the same molecule, in the data set with Alternalia solani, the “No. of disease spots per leaf” value is listed as 8 spots per leaf.
In the case of `CN(CCOc1ccc(Cl)cc1)c1ncnc2ccccc12` [compound 19, 4-{N-[2-(4-chlorophenoxy)ethyl]-N-methylamino}quinazoline], in data set [2], the pest or weed control at 500 ppm is 80% and the Extent of ingestion result was “±”. In the data set on cockroach larvae, the “Mortality rate (%), 0.5mg test cpd/10 cockroaches/bottle” value was determined as 85% and the “Mortality rate (%), 1mg test cpd/10 cockroaches/bottle” value was found to be 100%. Also, the Extent of ingestion result in data set [3] is given as “+”.
Take `CCCCN(CCOc1ccc(Cl)cc1C)c1ncnc2ccccc12` [compound 41, 4-{N-butyl-N-[2-(4-chloro-2-methylphenoxy)ethyl]amino}quinazoline]: in data set [2], the pest or weed control at 500 ppm came to 90% and the Extent of ingestion entry was “±”. Also, in the data set on cockroach larvae, the “Mortality rate (%), 0.5mg test cpd/10 cockroaches/bottle” value turned out to be 85% and the “Mortality rate (%), 1mg test cpd/10 cockroaches/bottle” value stood at 100%. Besides, in data set [3], the Extent of ingestion entry is “± to +”.
Regarding `C=C(C)CN(CCOc1ccccc1C(C)C)c1ncnc2ccccc12` [compound 52, 4-{N-[2-(2-isopropylphenoxy)ethyl]-N-(2-methylallyl)amino}quinazoline], the “Diseased area (%)” value in the data set on Phytophthora infestans was 13%; with Sphaerotheca fuliginea, 0%; in data set [1], 8%. Moreover, in the data set with guppies, the Toxicity ranking entry is listed as “i (all fish alive at 10 ppm)”.
As for `CCCCCCc1ccc(OCCN(C)c2ncnc3ccccc23)c(C)c1` [compound 57, 4-{N-[2-(4-hexyl-2-methylphenoxy)ethyl]-N-methylamino}quinazoline], in data set [2], the pest or weed control at 500 ppm came to 100% and the Extent of ingestion result is “- to ±”. Moreover, in the data set on cockroach larvae, the “Mortality rate (%), 0.5mg test cpd/10 cockroaches/bottle” value is listed as 90% and the “Mortality rate (%), 1mg test cpd/10 cockroaches/bottle” value was 100%. Also, the Extent of ingestion entry in data set [3] is “±”.
In the case of `C=CCN(CCOc1ccc(C)cc1C)c1ncnc2ccccc12` [compound 26, 4-{N-allyl-N-[2-(2,4-dimethylphenoxy)ethyl]amino}quinazoline], the “Diseased area (%)” value is given as 3% with Phytophthora infestans, 0% in the data set on Sphaerotheca fuliginea and 0% in data set [1]. The pest or weed control at 500 ppm in data set [2] worked out at 80%. Besides, the Extent of ingestion result in data set [2] and in data set [3] was “± to +” in each case. Besides, the “Mortality rate (%), 0.5mg test cpd/10 cockroaches/bottle” value in the data set on cockroach larvae is listed as 90%. For the same molecule, the “Mortality rate (%), 1mg test cpd/10 cockroaches/bottle” value in the data set on cockroach larvae is given as 100%.
For the molecule `CCN(CCOc1cc(C(C)C)ccc1C)c1ncnc2ccccc12` [compound 47, 4-{N-ethyl-N-[2-(5-isopropyl-2-methylphenoxy)ethyl]amino}quinazoline], in data set [2], the pest or weed control at 500 ppm was 90% and the Extent of ingestion result is reported as “±”. Moreover, the “Diseased area (%)” value in the data set with Sphaerotheca fuliginea is reported as 0%. Moreover, in the data set with cockroach larvae, the “Mortality rate (%), 0.5mg test cpd/10 cockroaches/bottle” value is 85% and the “Mortality rate (%), 1mg test cpd/10 cockroaches/bottle” value stood at 100%. Also, the Extent of ingestion result in data set [3] was “± to +”.
As for `CCN(CCOc1ccc(C)cc1C)c1ncnc2ccccc12` [compound 32, 4-{N-[2-(2,4-dimethylphenoxy)ethyl]-N-ethylamino}quinazoline], the results for the “Diseased area (%)” value (in the data set on Phytophthora infestans; with Sphaerotheca fuliginea; in data set [1]) were 5%, 0% and 8%, respectively. Also, the “Mortality rate (%), 0.5mg test cpd/10 cockroaches/bottle” value in the data set with cockroach larvae was 85%. The “Mortality rate (%), 1mg test cpd/10 cockroaches/bottle” value with cockroach larvae is 100%.
With `CC=CCN(CCOc1ccccc1C(C)C)c1ncnc2ccccc12` [compound 51, 4-{N-(2-butenyl)-N-[2-(2-isopropylphenoxy)ethyl]amino}quinazoline], the “Diseased area (%)” value (in the data set with Phytophthora infestans; in the data set with Sphaerotheca fuliginea; in data set [1]) was 0% each time. Further, in the data set on Alternalia solani, the “No. of disease spots per leaf” value turned out to be 4 spots per leaf.
As to `CCCCN(CCOc1ccccc1C)c1ncnc2ccccc12` [compound 10, 4-{N-butyl-N-[2-(2-methylphenoxy)ethyl]amino}quinazoline], the “Diseased area (%)” value with Sphaerotheca fuliginea is on record as 0%. Moreover, the “No. of disease spots per leaf” value in the data set with Alternalia solani amounted to 4 spots per leaf.
For `CC(C)c1ccccc1OCCN(c1ncnc2ccccc12)C1CCCCC1` [compound 31, 4-{N-cyclohexyl-N-[2-(2-isopropylphenoxy)ethyl]amino}quinazoline], in the data set on Alternalia solani, the “No. of disease spots per leaf” value came out at 13 spots per leaf.
For the molecule `C=CCN(CCOc1ccc(Cl)cc1C)c1ncnc2ccccc12` [compound 43, 4-{N-allyl-N-[2-(4-chloro-2-methylphenoxy)ethyl]amino}quinazoline], in the data set on Phytophthora infestans, the “Diseased area (%)” value stood at 11%. In addition, in data set [2], the pest or weed control at 500 ppm was determined as 70% and the Extent of ingestion entry is reported as “±”. Further, the “Diseased area (%)” value in the data set with Sphaerotheca fuliginea came out at 0%. Also, in the data set on cockroach larvae, the “Mortality rate (%), 0.5mg test cpd/10 cockroaches/bottle” value was determined as 90% and the “Mortality rate (%), 1mg test cpd/10 cockroaches/bottle” value was 100%. For the same molecule, the Extent of ingestion entry in data set [3] was “+”.
Take `CCN(CCOc1ccccc1C)c1ncnc2ccccc12` [Compound No. 2, 4-{N-ethyl-N-[2-(2-methylphenoxy)ethyl]amino}quinazoline]: the “Diseased area (%)” value was 3% in the data set on Phytophthora infestans, 0% in the data set on Sphaerotheca fuliginea and 0% in data set [1]. Moreover, the “Mortality rate (%), 0.5mg test cpd/10 cockroaches/bottle” value with cockroach larvae was found to be 90%. In the data set on cockroach larvae, the “Mortality rate (%), 1mg test cpd/10 cockroaches/bottle” value is listed as 100%. For the same molecule, the Toxicity ranking result in the data set with guppies is listed as “ii (all fish dead at 10 ppm but alive at 0.5 ppm)”. Also, in the data set with Alternalia solani, the “No. of disease spots per leaf” value stood at 16 spots per leaf.
